Laboratory results taken from patent US6194416A, “Heterocyclic compounds and their use” (Eli Lilly and Company, priority 1997, dated 2001).

Key:
[1] = target: muscarinic acetylcholine receptors; test: Inhibition of specific binding of 3H-Oxotremorine-M (3H-Oxo) to rat cortex membranes; set-up: species or system male Wistar rats; conditions: 1.0 nM 3H-Oxotremorine, 30 min, 25° C., pH 7.4
From the text: The pharmacological properties of the compounds of the invention can be illustrated by determining their capability to inhibit the specific binding of ^3 H-Oxotremorine-M (^3 H-Oxo). Birdsdall N. J. M., Hulme E. C., and Burgen A. S. V. (1980). "The Character of Muscarinic Receptors in Different Regions of the Rat Brain". Proc. Roy. Soc. London (Series B) 207,1.
^3 H-Oxo labels muscarinic receptor in the CNS (with a preference for agonist domains of the receptors). Three different sites are labeled by ^3 H-Oxo. […] Using the present experimental conditions only the high and medium affinity sites are determined.
The inhibitory effects of compounds on ^3 H-oxo binding reflects the affinity for muscarinic acetylcholine receptors.
(§1) All preparations are performed at 0-4° C. unless otherwise indicated. Fresh cortex (0.1-1 g) from male Wistar rats (150-250 g) is homogenized for 5-10 s in 10 mL 20 nM Hepes pH: 7.4, with an Ultra-Turrax homogenizer. The homogenizer is rinsed with 10 mL of buffer and the combined suspension centrifuged for 15 min. at 40,000×g. The pellet is washed three times with buffer. In each step the pellet is homogenized as before in 2×10 mL of buffer and centrifuged for 10 min. at 40,000×g.
The final pellet is homogenized in 20 mM Hepes pH: 7.4 (100 mL per g of original tissue) and used for binding assay. Aliquots of 0.5 mL is added 25 μL of test solution and 25 μL of ^3 H-Oxotremorine (1.0 nM, final concentration) mixed and incubated for 30 min. at 25° C. Non-specific binding is determined in triplicate using arecoline (1 μg/mL, final concentration) as the test substance. After incubation samples are added 5 mL of ice-cold buffer and poured directly onto Whatman GF/C glass fiber filters under suction and immediately washed 2 times with 5 mL of ice-cold buffer. The amount of radioactivity on the filters are determined by conventional liquid scintillation counting. Specific binding is total binding minus non specific binding.
Test substances are dissolved in 10 mL water (if necessary heated on a steam-bath for less than 5 min.) at a concentration of 2.2 mg/mL. 25-75% inhibition of specific binding must be obtained before calculation of IC50. The test value will be given as IC50 (the concentration (nM) of the test substance which inhibits the specific binding of ^3 H-oxo by 50%). IC50 =(applied test substance concentration) x([…])nM where Co is specific binding in control assays and Cx is the specific binding in the test assay. (The calculations assume normal mass-action kinetics).

nicotinic receptors = test: Nicotinic channel receptor binding: [3H]-cystine binding to crude synaptic membranes from whole rat brain; conditions: 1.25 nM [3H-cystine], about 60 min, about 4° C.
Procedure: Nicotinic Channel Receptor Binding Protocol:
The activity of the compounds claimed herein at the nicotinic receptor can be accomplished by the following assay.
Binding of […] to nicotinic receptors was accomplished using crude synaptic membrane preparations from whole rat brain (Pabreza et al. Molecular Pharmacol., 1990, 39:9). Washed membranes were stored at about -80° C. prior to use. Frozen aliquots were slowly thawed and resuspended in 20 volumes of buffer (containing: […] NaCl, 5 mM KCl, 2 mM MgCl2, 2 mM Tris-Cl, ph 7.4 @4° C.). After centrifuging at 20,000×g for 15 minutes, the pellets were resuspended in about 30 volumes of buffer. Homogenate (containing about 125-150 ug protein) was added to tubes containing concentrations of test compound and [^3 H-cystine] (1.25 nM) in a final volume of 500 uL. Samples were incubated for about 60 minutes at about 4° C., then rapidly filtered through GF/B filters presoaked in 0.5% polyethylimine using 3×4 mL of ice cold buffer. The filters were counted.

[2] = target: T1, muscarinic receptors (M1-site, pirenzepine sensitive site) (Rattus norvegicus, UniProt P08482); test: Inhibition of 3HPRZ (pirenzepine, [N-methyl-3H]) binding to rat cerebral cortex membranes; set-up: species or system male Wistar rats; conditions: rat cerebral cortex, 1.0 nM 3HPRZ, 60 min, 20° C., pH 7.4; read-out: 3HPRZ IC50
T1 construct: from tissue; host or cells: cerebral cortex membranes of male Wistar rats
T1 sequence (P08482 1-460): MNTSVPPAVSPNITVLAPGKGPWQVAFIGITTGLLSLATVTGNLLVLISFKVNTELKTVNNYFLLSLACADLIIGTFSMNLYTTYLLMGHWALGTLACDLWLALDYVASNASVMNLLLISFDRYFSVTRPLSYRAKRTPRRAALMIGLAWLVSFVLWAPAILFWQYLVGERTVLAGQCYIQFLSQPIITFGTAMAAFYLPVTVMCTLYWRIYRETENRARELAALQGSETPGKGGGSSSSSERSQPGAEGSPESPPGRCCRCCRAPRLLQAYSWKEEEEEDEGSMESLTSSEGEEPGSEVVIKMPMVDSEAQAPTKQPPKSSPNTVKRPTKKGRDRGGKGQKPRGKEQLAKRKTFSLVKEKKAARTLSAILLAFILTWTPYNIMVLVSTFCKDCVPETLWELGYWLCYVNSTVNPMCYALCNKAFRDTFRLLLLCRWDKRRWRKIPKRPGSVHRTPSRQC
Procedure: Furthermore the pharmacological properties of the compounds of the invention can also be illustrated by determining their capability to inhibit ^3 HPRZ (pirenzepine, [N-methyl-^3 H]) binding to rat cerebral cortex membranes.
Pirenzepine binds selectively to subtype of muscarinic receptors. Historically the type is named the M1 -site, whereas pirenzepine sensitive site would be more appropriate.
as §1, with “cortex ([…])” for “cortex (0.1-1 g)”, “rats (150-200” for “rats (150-250”, “20 mM” for “20 nM”, “with 2×10” for “with 10”, “in 3×10” for “in 2×10”
The final pellet is homogenized in 20 MM Hepes pH: 7.4 (100 mL per g of original tissue) and used for binding assay. Aliquots of 0.5 mL is added 20 μL of test solution and 25 μL of ^3 HPRZ (1.0 nM, final conc.), mixed and incubated for 60 min. at 20° C. Non-specific binding is determined in triplicate using atropine (1.0 μg/mL, final conc.) as the test substance. After incubation samples are added 5 mL of ice-cold buffer and poured directly onto Whatman GF/C glass fiber filters under suction and immediately washed 2 times with 5 mL of ice-cold buffer.
The amount of radioactivity on the filters are determined by conventional liquid scintillation counting. Specific binding is total binding minus non-specific binding.
Test substances are dissolved in 10 mL water, at a concentration of 0.22 mg/mL. 25-75% inhibition of specific binding must be obtained before calculation of IC50.
The test value will be given as IC50 (the concentration (nM) of the test substance which inhibits the specific binding of ^3 HPRZ by 50%). IC50 =(applied test substance concentration) x(Cx /Co -Cx)nM where Co is specific binding in control assays and Cx is the specific binding in the test assay. (The calculations assume normal mass-action kinetics).

[3] = test system: M2-sites of muscarinic receptors; conditions: general statement; cited from earlier work
[4] = test system: M1-sites of muscarinic receptors; conditions: general statement; cited from earlier work

SMILES	IC50 [1] [nM]	Ki (nicotinic receptors) [nM]	IC50 [2] [nM]	interaction with M2-sites [3]	muscarinic subtype selectivity [4]
Clc1cncc(O[C@@H]2CN3CCC[C@H]2C3)n1 (relative stereo) [Compound 22, 6-Chloro-2-[endo-(+,-)-6-(1-azabicyclo[3.2.1]octyloxy)]-pyrazine]	140	210	52		
CN1CCN(CC(=O)N2c3ccccc3C(=O)Nc3cccnc32)CC1 [pirenzepine]				also interact with M2 -sites	selective for M1 -sites
c1cnc(O[C@H]2CN3CCC[C@@H]2C3)cn1 (relative stereo) [Compound 21, 2-[endo-(+,-)-6-(1-azabicyclo[3.2.1]octyloxy)]-pyrazine]	26	130	123		
C[N+](C)(C)CCOc1cnccn1 [Compound 27, 2-(2-Trimethylaminoethoxy)pyrazine iodide]		110			
